DBAASP
In brackets after ≈: the same amount, converted by molar mass. One block for each compound: values may come before it.

Tests used:
Test in all cases: ≥ marks a high value that may be exact or a test limit, other limits are often not marked, values filed in µg/mL are converted to µM
[1] = test system: Bacillus subtilis
[2] = test system: Candida albicans ATCC 2002
[3] = test system: Staphylococcus aureus ATCC 43300
[4] = test system: Staphylococcus aureus ATCC 25923
[5] = test system: Escherichia coli ML-35p
[6] = test system: Staphylococcus aureus USA 300
[7] = test system: Escherichia coli K-12
[8] = test system: Bacillus subtilis 168
[9] = test system: Pseudomonas aeruginosa ATCC 9027
[10] = test system: Escherichia coli ATCC 25922
[11] = test system: Staphylococcus aureus ATCC 2592
[12] = test system: Pseudomonas aeruginosa PAO1
[13] = test system: Staphylococcus aureus ATCC BAA-1556

Compound: CC[C@H](C)[C@H](NC(=O)CNC(=O)[C@@H](NC(=O)[C@H](C)NC(=O)[C@@H](NC(=O)[C@H](CCCCN)NC(=O)[C@@H](NC(=O)[C@@H](NC(=O)[C@@H]1CCCN1C(=O)CNC(=O)[C@H](CC(C)C)NC(=O)[C@@H](N)Cc1ccccc1)[C@@H](C)CC)[C@@H](C)CC)[C@@H](C)CC)[C@@H](C)O)C(=O)N[C@@H](CC(C)C)C(=O)N1CCC[C@H]1C(=O)N[C@H](C(=O)N[C@@H](C)C(=O)N[C@H](C(=O)N[C@H]1CSSC[C@@H](C(=O)O)NC(=O)[C@H](CCCCN)NC(=O)[C@H](CCCCN)NC(=O)[C@H](CC(C)C)NC(=O)[C@H](Cc2ccccc2)NC(=O)[C@H](CCCCN)NC1=O)[C@@H](C)CC)[C@@H](C)O [FLGPIIKIATGILPTAICKFLKKC]
MIC [1]: 1.81 µM (≈ 4.69 µg/mL) | MIC [2]: 1.81 µM (≈ 4.69 µg/mL) | MIC [3]: 24.1 µM (≈ 62.5 µg/mL) | MIC [4]: 1.45 µM (≈ 3.75 µg/mL) | MIC [5]: 14.5 µM (≈ 37.5 µg/mL)

Compound: CC[C@H](C)[C@H](NC(=O)[C@H](CC(C)C)NC(=O)[C@H](C)NC(=O)[C@@H]1CCCN1C(=O)[C@H](CCCN=C(N)N)NC(=O)[C@@H](N)Cc1ccccc1)C(=O)N[C@H](C(=O)N[C@@H](CCCN=C(N)N)C(=O)N[C@H](C(=O)N[C@@H](CCCCN)C(=O)NCC(=O)N[C@H](C(=O)N[C@@H](CCCN=C(N)N)C(=O)N[C@@H](CC(C)C)C(=O)O)[C@@H](C)O)[C@@H](C)O)C(C)C [FRPALIVRTKGTRL]
MIC [6]: 30 µM (≈ 48.8 µg/mL) | MIC [7]: 30 µM (≈ 48.8 µg/mL)

Compound: CC[C@H](C)[C@H](NC(=O)[C@H](CCCN=C(N)N)NC(=O)[C@H](CCC(N)=O)NC(=O)[C@@H](NC(=O)[C@@H](NC(=O)[C@H](CCCN=C(N)N)NC(=O)[C@H](CCCCN)NC(=O)[C@H](Cc1ccccc1)NC(=O)CN)[C@@H](C)CC)C(C)C)C(=O)N[C@@H](C)C(=O)N[C@@H](CC(=O)O)C(=O)N[C@@H](Cc1ccccc1)C(=O)N[C@@H](CC(C)C)C(=O)N[C@@H](CCCN=C(N)N)C(=O)N[C@@H](CC(N)=O)C(=O)N[C@@H](CC(C)C)C(=O)N[C@H](C(N)=O)C(C)C [GFKRIVQRIADFLRNLV]
MIC [6]: 7.5 µM (≈ 15.3 µg/mL) | MIC [7]: ≥ 60 µM

Compound: CC[C@H](C)[C@H](NC(=O)[C@H](CCCCN)NC(=O)[C@H](CCCN=C(N)N)NC(=O)CNC(=O)[C@H](CC(C)C)NC(=O)[C@H](CO)NC(=O)[C@H](CCCN=C(N)N)NC(=O)[C@H](CC(C)C)NC(=O)CNC(=O)CN)C(=O)N[C@@H](CC(C)C)C(=O)N[C@@H](CCCN=C(N)N)C(=O)N[C@@H](C)C(=O)N[C@@H](Cc1c[nH]c2ccccc12)C(=O)N[C@@H](CCCCN)C(=O)N[C@@H](CCCCN)C(=O)N[C@@H](Cc1ccc(O)cc1)C(=O)NCC(=O)O [GGLRSLGRKILRAWKKYG]
MIC [8]: 8 µM (≈ 16.5 µg/mL) | MIC [7]: 2 µM (≈ 4.12 µg/mL)

Compound: CC[C@H](C)[C@H](NC(=O)CNC(=O)[C@@H]1CCCN1C(=O)CNC(=O)[C@H](CC(C)C)NC(=O)[C@H](CC(N)=O)NC(=O)[C@H](C)NC(=O)[C@H](Cc1ccccc1)NC(=O)[C@H](CC(N)=O)NC(=O)[C@H](C)NC(=O)[C@H](CCCN=C(N)N)NC(=O)[C@H](Cc1ccccc1)NC(=O)[C@H](C)NC(=O)[C@@H](NC(=O)[C@H](CCCN=C(N)N)NC(=O)[C@H](Cc1c[nH]c2ccccc12)NC(=O)[C@H](Cc1ccc(O)cc1)NC(=O)[C@H](CC(=O)O)NC(=O)[C@H](C)NC(=O)[C@H](CC(C)C)NC(=O)CN)[C@@H](C)O)C(=O)N[C@@H](CCCN=C(N)N)C(=O)N[C@H]1CSSC[C@@H](C(=O)O)NC(=O)[C@H](CCCN=C(N)N)NC(=O)[C@H](C)NC(=O)[C@H](CO)NC(=O)[C@H](CCCCN)NC1=O [GLADYWRTAFRANFANLGPGIRCKSARC]
MIC [9]: 6 µM (≈ 18.7 µg/mL) | MIC [2]: ≥ 32 µM | MIC [10]: 2 µM (≈ 6.23 µg/mL) | MIC [11]: 1 µM (≈ 3.11 µg/mL)

Compound: CC[C@H](C)[C@H](NC(=O)[C@H](C)NC(=O)[C@@H]1CCCN1C(=O)[C@@H](NC(=O)[C@@H](NC(=O)[C@H](Cc1cnc[nH]1)NC(=O)[C@H](CO)NC(=O)[C@@H](NC(=O)[C@@H](NC(=O)[C@H](CO)NC(=O)CNC(=O)[C@H](CC(C)C)NC(=O)[C@H](CC(C)C)NC(=O)CNC(=O)[C@H](CC(C)C)NC(=O)[C@H](CC(C)C)NC(=O)CN)C(C)C)C(C)C)C(C)C)C(C)C)C(=O)N[C@H](C(=O)NCC(=O)N[C@@H](Cc1cnc[nH]1)C(=O)N[C@@H](Cc1ccccc1)C(N)=O)C(C)C [GLLGLLGSVVSHVVPAIVGHF]
MIC [8]: 25 µM (≈ 51.8 µg/mL) | MIC [6]: 6.2 µM (≈ 12.8 µg/mL) | MIC [7]: ≥ 100 µM | MIC [12]: > 100 µM

Compound: CC(C)C[C@H](NC(=O)[C@H](Cc1c[nH]c2ccccc12)NC(=O)[C@H](Cc1c[nH]c2ccccc12)NC(=O)[C@H](CC(C)C)NC(=O)[C@H](CCCN=C(N)N)NC(=O)[C@H](Cc1c[nH]c2ccccc12)NC(=O)[C@@H](N)CC(C)C)C(=O)N[C@@H](Cc1c[nH]c2ccccc12)C(=O)N[C@@H](Cc1c[nH]c2ccccc12)C(N)=O [LWRLWWLWW]
MIC [13]: 3.12 µM (≈ 4.51 µg/mL)

Compound: CC[C@H](C)[C@H](NC(=O)[C@H](CCC(N)=O)NC(=O)[C@H](CCCCN)NC(=O)[C@H](Cc1c[nH]c2ccccc12)NC(=O)[C@H](CC(C)C)NC(=O)[C@H](CCC(N)=O)NC(=O)[C@@H]1CCCN1C(=O)[C@H](CC(C)C)NC(=O)[C@H](CCCCN)NC(=O)[C@H](C)NC(=O)[C@H](CCC(=O)O)NC(=O)[C@H](CCCCN)NC(=O)[C@@H](NC(=O)[C@H](CCSC)NC(=O)[C@@H](NC(=O)[C@@H](NC(=O)[C@@H](NC(=O)[C@@H](N)CO)[C@@H](C)CC)[C@@H](C)CC)[C@@H](C)O)[C@@H](C)O)C(=O)N[C@@H](C)C(=O)N[C@H]1CSSC[C@@H](C(=O)O)NC(=O)[C@H]([C@@H](C)O)NC(=O)[C@H](CC(N)=O)NC(=O)CNC(=O)[C@H](CC(C)C)NC(=O)[C@H](CCCN=C(N)N)NC1=O [SIITMTKEAKLPQLWKQIACRLGNTC]
MIC [1]: 20.4 µM (≈ 60 µg/mL) | MIC [2]: 5.09 µM (≈ 15 µg/mL) | MIC [10]: 10.2 µM (≈ 30 µg/mL) | MIC [11]: 5.09 µM (≈ 15 µg/mL)

Compound: CC[C@H](C)[C@H](NC(=O)[C@H](CCCCN)NC(=O)[C@H](CC(=O)O)NC(=O)[C@H](CC(C)C)NC(=O)[C@@H](NC(=O)[C@H](CC(N)=O)NC(=O)[C@H](CCC(N)=O)NC(=O)[C@@H](NC(=O)[C@H](Cc1ccccc1)NC(=O)CNC(=O)[C@H](CCCCN)NC(=O)CNC(=O)[C@H](C)NC(=O)[C@H](CC(N)=O)NC(=O)[C@H](CCCCN)NC(=O)[C@@H](NC(=O)[C@@H](NC(=O)[C@H](CCC(=O)O)NC(=O)[C@H](Cc1c[nH]c2ccccc12)NC(=O)[C@H](CC(C)C)NC(=O)[C@@H](N)CO)[C@@H](C)O)[C@@H](C)CC)[C@@H](C)CC)[C@@H](C)CC)C(=O)N[C@@H](CCCN=C(N)N)C(=O)O [SLWETIKNAGKGFIQNILDKIR]
MIC [1]: 8.6 µM (≈ 21.9 µg/mL) | MIC [2]: 12.9 µM (≈ 32.7 µg/mL) | MIC [4]: 3.69 µM (≈ 9.38 µg/mL) | MIC [5]: 14.7 µM (≈ 37.5 µg/mL)

Compound: CC(C)C[C@H](NC(=O)[C@H](Cc1c[nH]c2ccccc12)NC(=O)[C@H](CC(C)C)NC(=O)[C@H](CC(C)C)NC(=O)[C@H](Cc1c[nH]c2ccccc12)NC(=O)[C@H](Cc1c[nH]c2ccccc12)NC(=O)[C@H](CC(C)C)NC(=O)[C@H](Cc1c[nH]c2ccccc12)NC(=O)[C@@H](N)Cc1c[nH]c2ccccc12)C(N)=O [WWLWWLLWL]
MIC [13]: ≥ 100 µM

Compound: CC(C)C[C@H](NC(=O)[C@H](Cc1c[nH]c2ccccc12)NC(=O)[C@H](Cc1c[nH]c2ccccc12)NC(=O)[C@H](CC(C)C)NC(=O)[C@H](Cc1c[nH]c2ccccc12)NC(=O)[C@H](Cc1c[nH]c2ccccc12)NC(=O)[C@H](CCCN=C(N)N)NC(=O)[C@H](Cc1c[nH]c2ccccc12)NC(=O)[C@@H](N)Cc1c[nH]c2ccccc12)C(N)=O [WWRWWLWWL]
MIC [13]: 3.12 µM (≈ 4.74 µg/mL)

Results, then the compound that gave them:

MIC [13]: 25 µM (≈ 33.1 µg/mL)
Compound: CC[C@H](C)[C@H](NC(=O)[C@H](Cc1c[nH]c2ccccc12)NC(=O)[C@H](CCCN=C(N)N)NC(=O)[C@H](CCCN=C(N)N)NC(=O)[C@H](Cc1c[nH]c2ccccc12)NC(=O)[C@@H](N)CCCCN)C(=O)N[C@@H](CCCN=C(N)N)C(=O)N[C@@H](CC(C)C)C(=O)N[C@@H](CC(C)C)C(N)=O [KWRRWIRLL]

MIC [13]: ≥ 100 µM
Compound: CC(C)C[C@H](NC(=O)[C@H](CC(C)C)NC(=O)[C@H](CCCCN)NC(=O)[C@H](CC(C)C)NC(=O)[C@H](CC(C)C)NC(=O)[C@H](CC(C)C)NC(=O)[C@H](CC(C)C)NC(=O)[C@H](CCCCN)NC(=O)[C@@H](N)CC(C)C)C(N)=O [LKLLLLKLL]

MIC [13]: ≥ 100 µM
Compound: CC(C)C[C@H](NC(=O)[C@H](CC(C)C)NC(=O)[C@H](CC(C)C)NC(=O)[C@H](CC(C)C)NC(=O)[C@H](CCCCN)NC(=O)[C@H](CC(C)C)NC(=O)[C@H](CCCCN)NC(=O)[C@H](CC(C)C)NC(=O)[C@@H](N)CC(C)C)C(N)=O [LLKLKLLLL]

MIC [13]: ≥ 100 µM
Compound: CC(C)C[C@H](NC(=O)[C@H](CC(C)C)NC(=O)[C@H](CC(C)C)NC(=O)[C@H](CCCCN)NC(=O)[C@H](CCCCN)NC(=O)[C@H](CC(C)C)NC(=O)[C@H](CC(C)C)NC(=O)[C@H](CC(C)C)NC(=O)[C@@H](N)CC(C)C)C(N)=O [LLLLKKLLL]

MIC [13]: 3.12 µM (≈ 4.28 µg/mL)
Compound: CC(C)C[C@H](NC(=O)[C@H](Cc1c[nH]c2ccccc12)NC(=O)[C@H](CCCN=C(N)N)NC(=O)[C@H](CC(C)C)NC(=O)[C@H](Cc1c[nH]c2ccccc12)NC(=O)[C@H](CC(C)C)NC(=O)[C@H](CC(C)C)NC(=O)[C@H](Cc1c[nH]c2ccccc12)NC(=O)[C@@H](N)Cc1c[nH]c2ccccc12)C(N)=O [WWLLWLRWL]
